The values below come from ChEMBL document CHEMBL3507680, “University of Dundee, Gates Library screen for HepG2 cell viability”.

The structures appear in SMILES notation.

This series in a line: Human HepG2 cell viability assay in 384 well format. The class given is toxicity, cell-based. Particulars: HepG2 cells, read-out: Inhibition. Details: dose 125 nL, time 70.5 hour; concentration not given beside the values.
`Cc1noc(C)c1CS(=O)(=O)CC(=O)NCCc1cccs1`: the cytotoxicity at 70.5 h was found to be 15.1%. As for `CNS(=O)(=O)c1ccccc1N1CCN(C(=O)C(C)C)CC1`, the cytotoxicity at 70.5 h was -5.83%. For the compound `CN(C)C(=O)COc1ccccc1CNC1CCc2ncnn2C1` (configuration not stated), the cytotoxicity at 70.5 h was -6.71%. `CC(C)(C)CC(=O)NCC(=O)NS(=O)(=O)c1cccnc1`: the cytotoxicity at 70.5 h was 2.71%. With `COC(=O)N(C)CCCC(=O)Nc1[nH]nc(-c2ccncc2)c1C`, the cytotoxicity at 70.5 h was -2.11%. In the case of `O=C(CNC(=O)c1cc(Cl)ccn1)Nc1nccs1`, the cytotoxicity at 70.5 h was -4.32%. In the case of `COc1cccc(COCC(=O)NC(C(N)=O)c2ccccc2F)c1` (configuration not stated), the cytotoxicity at 70.5 h was found to be 12%.

For `NC(=O)C(NC(=O)COCCc1ccccc1)c1ccccc1F` (configuration not stated), the cytotoxicity at 70.5 h amounted to 5.16%. Regarding `OCCN(Cc1cccnc1)c1ncc(Br)cn1`, the cytotoxicity at 70.5 h was -2%.

On to `Cc1cc(C(=O)NCC(O)CN2CCCC2=O)ccc1F` (configuration not stated), for which the cytotoxicity at 70.5 h is -4.58%.

For the compound `CCn1nc2c(cc1=O)CN(CCOc1cccc(C#N)c1)CC2`, the cytotoxicity at 70.5 h is -3.93%. `Cc1cc(C2CCCN(C(=O)COc3cc(F)ccc3F)C2)n[nH]1` (configuration not stated): the cytotoxicity at 70.5 h was found to be 3.52%. On to `COC(=O)c1oc(CNC(C)(C)c2ccc3c(c2)OCO3)cc1C`, for which the cytotoxicity at 70.5 h came to 19.5%. In the case of `CN(Cc1ncnn1C)C(=O)CCn1ccc2ccccc21`, the cytotoxicity at 70.5 h is -7.59%.

On to `O=C1CC2(CCSC2)C(=O)N1CCCc1ccccc1` (configuration not stated), for which the cytotoxicity at 70.5 h is -5.63%. Turning to `CCOC(=O)C(C)NC(=O)CCSc1ccc(F)cc1` (configuration not stated), the cytotoxicity at 70.5 h was -2.94%. Turning to `COCCN(C)CC1CCCN1S(=O)(=O)c1cccc(F)c1F` (configuration not stated), the cytotoxicity at 70.5 h was -4.32%. As for `Cc1cc2n(n1)CC(CNC1CCN(Cc3ccncc3)CC1)CN2` (configuration not stated), the cytotoxicity at 70.5 h was -0.58%. With `CCc1cccc(NS(=O)(=O)c2cc(C)c(C(=O)O)s2)c1`, the cytotoxicity at 70.5 h was 0.535%.

For the compound `Cc1cc2n(n1)CC(CNC1CCN(Cc3ccccn3)CC1)CN2` (configuration not stated), the cytotoxicity at 70.5 h is -6.35%. For the compound `N#Cc1cccc(CNC(=O)NC2CCN(CC(F)F)CC2)c1`, the cytotoxicity at 70.5 h was 17.7%. With `CC(C)c1noc(CCC(=O)NC(C)c2nnc3n2CCC3)n1` (configuration not stated), the cytotoxicity at 70.5 h came out at 0.884%. For the compound `CC(C)c1noc(CCCC(=O)NC(C)c2nnc3n2CCC3)n1` (configuration not stated), the cytotoxicity at 70.5 h is -4.68%. In the case of `CC(C)NC(=O)Nc1ccccc1CN1CCOCC1`, the cytotoxicity at 70.5 h was -5.87%. Take `COc1ccnc(N2CCN(C(=O)c3cnc(C4CC4)s3)CC2)n1`: the cytotoxicity at 70.5 h is -5.21%. For the compound `CCS(=O)(=O)N1CCC(NCC2CNc3cc(C)nn3C2)CC1` (configuration not stated), the cytotoxicity at 70.5 h worked out at 19.2%. The result for `Cc1cc(S(=O)(=O)Nc2cccc(OC(F)F)c2)sc1C(=O)O` reads 16.4%. In the case of `CC(C)COCC(C)NC(=O)NCc1cccc(-n2cncn2)c1` (configuration not stated), the cytotoxicity at 70.5 h was -2.93%.

Take `Cc1ccccc1C(=O)NC1CCN(c2cnn(C)c2)C1=O` (configuration not stated): the cytotoxicity at 70.5 h is -4.47%. With `Cc1nc(CN2CCC(CNC(=O)NCCC3CCC3)CC2)oc1C`, the cytotoxicity at 70.5 h is 0.076%.

Turning to `Cc1c(CNC(=O)NCc2cccc(-n3cncn3)c2)cnn1C`, the cytotoxicity at 70.5 h is -5.57%. For the compound `CCC(CC)c1cc(CNC(=O)N2CCCC(c3ncc[nH]3)C2)on1` (configuration not stated), the cytotoxicity at 70.5 h came out at 0.2%. As for `CCN1CCN(c2ccc(F)cc2C(C)NCc2nc(C)no2)CC1` (configuration not stated), the cytotoxicity at 70.5 h is -0.791%. On to `CCC(CC)c1cc(CNC(=O)N2CCC[C@@H]2CO)on1`, for which the cytotoxicity at 70.5 h was found to be 15.7%.

`CCC(CC)c1cc(CNC(=O)N2CCC(CO)CC2)on1`: the cytotoxicity at 70.5 h was -4.82%. The same measure for `CC(C)C(O)C(C)(C)CNC(=O)NCc1ccc(-n2cncn2)cc1` (configuration not stated): -1.82%.

Take `COc1c(CNC2CCOc3ccccc32)c(C)nn1C` (configuration not stated): the cytotoxicity at 70.5 h was -4.19%. For `c1cc(CNCc2ccnc(N3CCCCC3)c2)c2c(c1)OCCCO2`, the cytotoxicity at 70.5 h was -10.6%. The result for `CCN(CC(=O)NC(C)C)S(=O)(=O)N1CCCC(C)C1` (configuration not stated) reads -1.39%; that for `O=C1CC2(CCCC2)C(=O)N1CC(O)COCc1ccccc1F` (configuration not stated), 12.5%.

Consider `Cc1ccc(-c2ccsc2C(=O)NC2CCS(=O)(=O)C2)cc1` (configuration not stated), for which the cytotoxicity at 70.5 h is -3.7%. The same measure for `O=C(NC1CCS(=O)(=O)C1)c1ccc(-c2ccc(F)cc2)s1` (configuration not stated): -0.198%; for `COc1cc(C(=O)O)ccc1OCC(=O)NC(C)c1ccc(F)cc1` (configuration not stated): -5.08%. The same measure for `COc1ccc(C(=O)O)c(OCC(=O)NC(C)c2ccccc2)c1` (configuration not stated): -5.77%. As for `COc1c(CNC2CCOc3c(F)cccc32)c(C)nn1C` (configuration not stated), the cytotoxicity at 70.5 h was -3.45%. As to `Cc1cnn(CC2CN(CCS(C)(=O)=O)CCO2)c1` (configuration not stated), the cytotoxicity at 70.5 h was -4.67%.

In the case of `COC(=O)N1CCC(NC(=O)Cn2cc(C)c3ccccc32)CC1`, the cytotoxicity at 70.5 h was -7.09%. The same measure for `Cc1cc(CNC(=O)[C@H]2CCCCN2C(=O)OC(C)(C)C)on1`: -1.11%; for `COc1ccc(CNC(=O)CNc2cc3c(cc2Cl)OCCO3)cc1`: -0.455%.

Consider `CSCC(C)(O)CNC(=O)c1cc(F)ccc1Br` (configuration not stated), for which the cytotoxicity at 70.5 h stood at 1.71%. For `COCCN1CCC(NC(=O)Cn2cc(C)c3ccccc32)CC1`, the cytotoxicity at 70.5 h stood at 12.3%.

In the case of `Cc1cc(CNC(=O)C2CCCN2C(=O)OC(C)(C)C)no1` (configuration not stated), the cytotoxicity at 70.5 h is -0.379%.

Regarding `c1ccc2c(c1)OCCCC2NCc1nnc2n1CCCCC2` (configuration not stated), the cytotoxicity at 70.5 h is -2.04%. The result for `Cc1nn(C)c(Oc2ccccc2)c1CNC1CCOc2ccccc21` (configuration not stated) reads -1.6%; that for `Cc1cc(CN(Cc2ccccc2)CC(O)c2cccs2)on1` (configuration not stated), 8.6%. `OC(CN(Cc1ccccc1)Cc1ccon1)c1cccs1` (configuration not stated): the cytotoxicity at 70.5 h was -5.21%. For `CN(C)c1cc(CNCc2cccc3c2OCCO3)ccn1`, the cytotoxicity at 70.5 h is -4.63%. `CCN(CC)S(=O)(=O)N1CCCN(CC(=O)NC(C)C)CC1`: the cytotoxicity at 70.5 h came out at 6.63%. In the case of `c1cc(CNCc2ccnc(N3CCCC3)c2)c2c(c1)OCCCO2`, the cytotoxicity at 70.5 h was -10%.

As to `Cc1oncc1C(=O)NCC(c1ccccc1Cl)N1CCOCC1` (configuration not stated), the cytotoxicity at 70.5 h is -3.09%. The result for `Cc1cnc(C(=O)NCC(c2ccc(C)o2)N2CCOCC2)cn1` (configuration not stated) reads 10.4%. In the case of `CN1CCN(Cc2ccccc2CNC(=O)c2cc(Cl)ccc2F)CC1`, the cytotoxicity at 70.5 h is -5.92%. The result for `Cc1ccoc1C(=O)NCC(c1ccccc1Cl)N1CCOCC1` (configuration not stated) reads -1.62%; that for `CC(C)CN1CCN(C(=O)c2cccnc2-n2cncn2)CC1`, 11.2%; that for `CC(NC(=O)Cc1ccccc1F)C(=O)N1CCS(=O)(=O)CC1` (configuration not stated), -3.35%.

As to `CC(C)(C)NC(=O)NC(=O)COc1nc(C(C)(C)C)no1`, the cytotoxicity at 70.5 h came out at 13%. Regarding `CN(Cc1ccc(N(C)C)cc1)C(=O)CS(=O)(=O)c1ccc(Cl)cc1`, the cytotoxicity at 70.5 h turned out to be 17%. For `CC(C)(C)N1CCN(C(=O)c2cccnc2-n2cncn2)CC1`, the cytotoxicity at 70.5 h was determined as 0.2%. In the case of `N#Cc1cccnc1NCCNC(=O)N1CCN2CCCCC2C1` (configuration not stated), the cytotoxicity at 70.5 h is 13.6%. Turning to `Cc1ccc(CC(=O)NC(C)C(=O)N2CCS(=O)(=O)CC2)s1` (configuration not stated), the cytotoxicity at 70.5 h is -1.34%. The same measure for `Cc1cnn(CC2CCCN2CC(=O)N(C)Cc2ccco2)c1` (configuration not stated): -4.69%; for `Cn1cc(CCCNS(=O)(=O)N2CCCC2c2ccco2)cn1` (configuration not stated): -2.37%; for `CS(=O)(=O)Cc1ccc(Cl)c(NCc2noc(C3CC3)n2)c1`: 0.67%. Turning to `O=C(NC1(c2nccs2)CCCC1)c1cc(C2CC2)[nH]n1`, the cytotoxicity at 70.5 h is -2.38%. On to `O=C(NC1(c2nccs2)CCCC1)c1[nH]nc(C2CC2)c1Cl`, for which the cytotoxicity at 70.5 h is 3%.

As for `Cn1ccc(NC2CCN(C3CC3)C2=O)n1` (configuration not stated), the cytotoxicity at 70.5 h worked out at 11.7%.

Take `COCC(C)(C#N)NC(=O)COc1ccccc1Br` (configuration not stated): the cytotoxicity at 70.5 h was -0.405%. `CCC(NCc1cc[nH]n1)c1nc(C(F)(F)F)cs1` (configuration not stated): the cytotoxicity at 70.5 h is -4.23%. Turning to `CCN(CC1CCCO1)S(=O)(=O)c1cc(NC(C)=O)ccc1C` (configuration not stated), the cytotoxicity at 70.5 h is 6.44%. Regarding `CN(CCN1CCCC1=O)S(=O)(=O)CC1CCCC1`, the cytotoxicity at 70.5 h is -4.62%. With `CCn1cc(CN(C)S(=O)(=O)N2CCCC2c2ccco2)cn1` (configuration not stated), the cytotoxicity at 70.5 h is -1.42%. With `CC(C)N1CCC(Nc2ccn(CCC#N)n2)C1=O` (configuration not stated), the cytotoxicity at 70.5 h is -2.6%. In the case of `Cc1[nH]ccc1C(=O)N(C)C1CC(=O)N(Cc2ccccc2)C1=O` (configuration not stated), the cytotoxicity at 70.5 h was -2.82%. The result for `O=C(CNc1cc(F)ccc1OC(F)F)NCC(F)(F)F` reads 2.53%; that for `CN(C(=O)CN1CCCC1c1cnn(C)c1)C(C)(C)C#N` (configuration not stated), 1.19%. On to `Cc1ccc(N2CCCC(N(C)c3ncnc4c3CCC4)C2)nn1` (configuration not stated), for which the cytotoxicity at 70.5 h was found to be 2.74%.

For the compound `CCOc1cc(C(=O)N(C)C)ccc1NC(=O)C(C)c1ccsc1` (configuration not stated), the cytotoxicity at 70.5 h was found to be 26%. Consider `O=c1oc(-c2ccc(F)cc2)nn1CCc1ccccn1`, for which the cytotoxicity at 70.5 h was found to be 2.48%.

Take `CCN(CC)Cc1ccccc1NC(=O)N(C)Cc1ccccc1O`: the cytotoxicity at 70.5 h is -6.5%. Turning to `Cn1ccnc1COc1ccc(CSc2nncn2C2CC2)cc1`, the cytotoxicity at 70.5 h is -8.64%. As for `CN(C)C(=O)c1ccccc1NC(=O)N(C)Cc1ccccc1O`, the cytotoxicity at 70.5 h came to 4.11%. The same measure for `NC(=O)Cn1ccc(NC(=O)C2(c3cccc(Cl)c3)CC2)n1`: -7.03%; for `Cc1cc(C(=O)N2CCCC(N3CCNC3=O)C2)nn1C(C)(C)C` (configuration not stated): -0.73%. `NC(=O)CCN1C(=O)CC(Cc2ccc(F)cc2)C1=O` (configuration not stated): the cytotoxicity at 70.5 h is -11.2%. The same measure for `N#CC(NC(=O)CS(=O)(=O)C1CCCC1)c1ccc(F)cc1F` (configuration not stated): -10.4%; for `O=C(CNc1ccc(F)cc1OCC(F)(F)F)NCC(F)(F)F`: 13.1%. For the compound `CC(CNC(=O)c1c[nH]nn1)Oc1cccc(Br)c1` (configuration not stated), the cytotoxicity at 70.5 h was -11.4%. For `CC(CNC(=O)c1ccon1)Oc1cccc(Br)c1` (configuration not stated), the cytotoxicity at 70.5 h stood at 4.03%. The same measure for `C=C(C)CN1C(=O)CC(Cc2ccc(F)cc2)C1=O` (configuration not stated): -3.87%; for `CCOc1ccc(C(=O)N(C)C)cc1NC(=O)c1ccsc1`: -10.6%. As to `CCCS(=O)(=O)N(C)C(=O)CCc1ccccc1`, the cytotoxicity at 70.5 h was -8.46%. Turning to `COc1c(CNC2CCCOc3ccc(F)cc32)c(C)nn1C` (configuration not stated), the cytotoxicity at 70.5 h was -2.26%.
